# Laboratory results: US20140341812A1, “BETA-AMYLOID PET IMAGING AGENTS” (The United States of America, as represented by the …, priority 2006, published 2014)
# Tested on: not given
# Assay: not given
# Conditions: after intravenous injection into rodent or monkey; reported in Cai et al., J. Med. Chem. 2004; cited from earlier work
row,Compound,SUV (standardized uptake value) in brain
1,"CN(CCF)c1ccc(-c2cn3cc(I)ccc3n2)cc1 [[^18F]FEM-IMPY, N-(2-fluoroethyl)-4-(6-iodo-H-imidazo[1,2-A]pyridin-2-yl)-N-methylbenzeneamine]",about 160 % I.D.kg/g
2,CN(CCC[18F])c1ccc(-c2cn3cc(I)ccc3n2)cc1 [[^18F]FPM-IMPY],about 160 % I.D.kg/g

# Biological target: amyloid (Homo sapiens, UniProt P05067)
# Assay: not given
# Conditions: PET, patients with AD vs healthy people; cited from earlier work
# Sequence of amyloid (P05067 672-713 limits assumed): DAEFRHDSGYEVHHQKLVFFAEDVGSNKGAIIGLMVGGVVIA
# Sequence of amyloid (P05067 672-711 limits assumed): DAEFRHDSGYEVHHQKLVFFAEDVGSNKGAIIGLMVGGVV
row,Compound,binding in the brains of patients with AD compared with healthy people
1,"CNc1ccc(-c2nc3ccc(O)cc3s2)cc1 [carbon-11-labelled-PIB, 6-hydroxy-2-(4′-methylaminophenyl)benzothiazole]",more binding in the brains of patients with AD than in those of healthy people
2,"CC(=C(C#N)C#N)c1ccc2cc(N(C)CC[18F])ccc2c1 [fluorine-18-labelled-FDDNP, 2-(1-{6-[(2-[^18F]fluoroethyl)(methyl)amino]-2-naphthyl}ethylidene)malononitrile]",more binding in the brains of patients with AD than in those of healthy people

# Biological target: T1, beta-amyloid plaques in AD brain tissue (Homo sapiens, UniProt P05067)
# T1 construct: gauged from the concentration of Aβ1-40 and Aβ1-42 monomers; from tissue; host or cells: postmortem human AD brain grey matter; plaques isolated by SDS/sucrose centrifugation and collagenase/DNase digestion
# Assay: In vitro binding assay: competitive displacement of [3H]6-OH-BTA-1 from isolated human AD amyloid plaques
# Conditions: [3H]6-OH-BTA-1 as reference radioligand; isolated human AD amyloid plaques; Table 4
# Description: Isolation of human AD amyloid. Postmortem brain […] were obtained from a confirmed AD patient. Pre- and postmortem consent was obtained from next of kin, and brains were removed at autopsy, sectioned and frozen at −70° C. Bags of brain tissue were removed from the freezer to a −20° C. freezer one day before, and then placed on ice 3 h before the experiment. While working on ice, the brain tissue was cut into small sections, and meningies from outer layer of cortex and from fissures between the lobes of the gray matter was removed. After removing the white matter, the grey matter were chopped into small pieces and placed into plastic bags. The tissue was stored in −70° C. freezer for further use.
# In a typical isolation, 60 g of brain tissue were used. Initially, an equal volume of 1% SDS was added to homogenize. More 1% SDS was added later until 200 mL. The mixture was vortexed, distributed evenly among 10 Beckman ultracentrifuge tubes, and centrifuged by a Coulter type 55.2 Ti ultracentrifuge rotor using RPM: 40,000; G force; 180,000; temp: 4° C.; time: 30 min. The collected bottom pellets were further homogenized and centrifuged twice more as described above using 50 mL and 20 mL of 1% SDS each, and finally in 20 mL 1.2 M sucrose. The supernatant along the top pellet was discarded. The pellets at the bottom were homogenized and centrifuged in 20 mL 1.9 M sucrose. The top pellets were collected using a cell scrapper, and the bottom pellets were discarded. The collected top pellets were homogenized and centrifuged using 20 mL deionized water. The bottom pellets were further homogenized and centrifuged using 1.3 M sucrose solution into one centrifuge tube. The bottom pellets were homogenized and centrifuged using 20 mL deionized water. The collected pellets were homogenized in 30 mL of 50 mM Tris-HCl, pH 8.0, 2 mM CaCl2. Collagenase CLS3 (120 mg) and DNAase I (10-15 mg) were added. The mixture was vortexed and incubated for 24-56 hrs at 37° C. in a water bath with shaking. After incubation, the suspension was filtered through 41 μm Milllpore filter paper. The collected filtrate was centrifuged and the bottom pellets were homogenized and centrifuged one more time using the Tris-HCl solution. The supernatant was discarded, and the pellets were homogenized and centrifuged using 10 mL 1.9 M sucrose. The top pellet and the 1.9M sucrose layer were transferred to a new tube (this is to remove heavy particles such as metals and salts). Deionized water (40 mL) was added. After homogenization and centrifugation, the collected pellets were put into 500 μL of deionized water to form a homogeneous suspension. It was stored in a refrigerator or freezer for further use.
# The amyloid suspension prepared above was diluted by a factor of 40,000 to 50,000 in PBS, and 800 μL suspension was used in each tube. […] Cold 6-OH-BTA-1 or other displacer was dissolved in ethanol to result in a stock solution of 1×10^−3 M, which was further diluted using PBS or ethanol to result in solutions with concentrations ranging from 1×10^−5 to 10^−10 M, and 100 μL was used in each tube. After assembly, the tubes were vortexed, and incubated for 3 hrs at room temperature. After separation using a cell harvester, the filter paper (GF/B filter paper pretreated with 0.5% polyimine solution) was washed with 10% ethanol in PBS (3×3 mL). The filters were placed into 20 mL glass vials and 10 mL scintillation fluid each was added. After overnight incubation, the samples were counted. The data were analyzed using GraphPad Prism 4 or KaleidaGraph 3.6.
# Isolated plaques were used in developing an in vitro binding assay. Tritiated-6-OH-BTA-1 was selected as the reference radioligand based on its use in human PET imaging and high affinity.^28 Displacement curves were created using non-radioactive 6-OH-BTA-1 and other novel ligands.
# T1 sequence (P05067 672-713 limits assumed): as the sequence (P05067 672-713 limits assumed) above
# T1 sequence (P05067 672-711 limits assumed): as the sequence (P05067 672-711 limits assumed) above
row,Ki [nM],Compound
1,31 ± 5,"CN(CCF)c1ccc(-c2cn3cc(I)ccc3n2)cc1 [Ligand L2, N-(2-fluoroethyl)-4-(6-iodo-H-imidazo[1,2-A]pyridin-2-yl)-N-methylbenzeneamine, reference compound]"
2,41 ± 5,"CN(CCCF)c1ccc(-c2cn3cc(I)ccc3n2)cc1 [Ligand L3, reference compound]"
3,24.2 ± 5.6,CN(C)c1ccc(-c2cn3cc(Cl)ccc3n2)cc1 [Ligand L5]
4,13 ± 1.6,"CN(C)c1ccc(-c2cn3cc(F)ccc3n2)cc1 [Ligand L6, 4-(6-fluoro-H-imidazo[1,2-a]pyridin-2-yl)-N,N-dimethylbenzenamine]"
5,7.6 ± 0.7,"CN(C)c1ccc(-c2cn3cc([N+](=O)[O-])ccc3n2)cc1 [Ligand L7, N,N-dimethyl-4-(6-nitro-H-imidazo[1,2-a]pyridin-2-yl)benzenamine]"
6,8.2 ± 1,"CN(C)c1ccc(-c2cn3cc(C#N)ccc3n2)cc1 [Ligand L8, 2-(4-(dimethylamino)phenyl)-H-imidazo[1,2-a]pyridine-6-carbonitrile]"
7,38.5 ± 5,"COc1ccc2nc(-c3ccc(N(C)C)cc3)cn2c1 [Ligand L9, 4-(6-methoxy-H-imidazo[1,2-a]pyridin-2-yl)-N,N-dlmethylbenzenamine]"
8,177 ± 31,"CN(C)c1ccc(-c2cn3cc(O)ccc3n2)cc1 [Ligand L12, 2-(4-(dimethylamino)phenyl)-H-imidazo[1,2-a]pyridin-6-ol]"
9,183 ± 61,"CN(C)c1ccc(-c2cc3c(I)cc(Br)cn3c2)cc1 [Ligand L13, 4-(6-bromo-8-iodoindolizin-2-yl)-N,N-dimethylbenzenamine]"
10,> 180,"CN(C)c1ccc(-c2cc3c(C#N)cc(Br)cn3c2)cc1 [Ligand L14, 6-bromo-2-(4-(dimethylamino)phenyl)indolizine-8-carbonitrile]"
11,7.4 ± 0.6,"CNc1ccc(-c2cn3cc(Br)ccc3n2)cc1Br [Ligand L18, 2-bromo-4-(6-bromo-H-imidazo[1,2-a]pyridin-2-yl)-N-methylbenzenamine]"
12,658 ± 47,"Cc1cc(-c2cn3cc(Br)ccc3n2)ccc1N [Ligand L20, 4-(6-bromo-H-imidazo[1,2-a]pyridin-2-yl)-2-methylbenzenamine]"
13,1840 ± 497,"CNc1ccc(-c2cn3cc(SCC(N)=O)ccc3n2)cc1 [Ligand T1, 2-(2-(4(methylamino)pheny)-H-imidazo[1,2-a]pyridin-6-ylthio)acetamide]"
14,391 ± 76,"CN(C)c1ccc(-c2cn3cc(SCC(N)=O)ccc3n2)cc1 [Ligand T2, 2-(2-(4-(dimethylamino)phenyl)-H-imidazo[1,2-a]pyridin-6-ylthio)acetamide]"
15,645 ± 75,"CNc1ccc(-c2cn3cc(SCCO)ccc3n2)cc1 [Ligand T3, 2-(2-(4-(methylamino)phenyl)-H-imidazo[1,2-a]pyridin-6-ylthio)ethanol]"
16,88 ± 6,"CN(C)c1ccc(-c2cn3cc(SCCO)ccc3n2)cc1 [Ligand T4, 2-(2-(4-(dimethylamino)phenyl)-H-imidazo[1,2-a]pyridin-6-ylthio)ethanol]"
17,8.3 ± 1.8,"COc1ccc(CSc2ccc3nc(-c4ccc(N(C)C)cc4)cn3c2)cc1 [Ligand T5, 4-(6-(4-methoxybenzylthio)-H-imidazo[1,2-a]pyridin-2-yl)-N,N-dimethylbenzenamine]"
18,7.9 ± 0.6,"CSc1ccc2nc(-c3ccc(N(C)C)cc3)cn2c1 [Ligand T6, N,N-dimethyl-4-(6-(methylthio)-H-imidazo[1,2-a]pyridin-2-yl)benzenamine]"
19,8.3 ± 0.5,"CCSc1ccc2nc(-c3ccc(N(C)C)cc3)cn2c1 [Ligand T7, 4-(6-(ethylthio)-H-imidazo[1,2-a]pyridin-2-yl)-N,N-dimethylbenzenamine]"

row,Compound,Ki [nM]
1,CN(C)c1ccc(-c2cn3cc(Br)ccc3n2)cc1 [Ligand L4],5.9 ± 0.4

# Same assay, conditions: [3H]6-OH-BTA-1 as reference radioligand; isolated human AD amyloid plaques; Table 5
row,Ki [nM],Compound
1,88 ± 22,"CN(C)c1ccc(-c2cn3cc(Cl)ncc3n2)cc1 [Ligand L21, 4-(6-chloroimidazo[1,2-a]pyrazin-2-yl)-N,N-dimethylbenzenamine]"
2,147 ± 20,"CN(C)c1ccc(-c2cn3cc(Cl)cnc3n2)cc1 [Ligand L22, 4-(6-chloroimidazo[1,2-a]pyrimidin-2-yl)-N,N-dimethylbenzenamine]"
3,5.7 ± 0.7,CN(C)c1ccc(-c2nc3ccc(SCCO)cc3s2)cc1 [Ligand P1]

# Same assay, conditions: discussion of the Table 4 Ki values
row,binding affinity (in words),Compound
1,abolishes all binding affinity,"CN(C)c1ccc(-c2cn3cc(O)ccc3n2)cc1 [Ligand L12, 2-(4-(dimethylamino)phenyl)-H-imidazo[1,2-a]pyridin-6-ol]"
2,completely removes the binding affinity,"CN(C)c1ccc(-c2cc3c(C#N)cc(Br)cn3c2)cc1 [Ligand L14, 6-bromo-2-(4-(dimethylamino)phenyl)indolizine-8-carbonitrile]"

# Same assay, conditions: displacement of [3H]6-OH-BTA-1 from isolated amyloid plaques
row,Compound,displacement of reference radioligand [%]
1,"CNc1ccc(-c2nc3ccc(O)cc3s2)cc1 [PIB, 6-hydroxy-2-(4′-methylaminophenyl)benzothiazole, reference compound]",> 95

# Tested on: not given
# Assay: not given
# Conditions: not given
row,melting point [°C],Compound
1,234 to 236,CN(C)c1ccc(-c2cn3cc(Cl)ccc3n2)cc1 [Ligand L5]
2,269 to 271,"CN(C)c1ccc(-c2cn3cc(C#N)ccc3n2)cc1 [Ligand L8, 2-(4-(dimethylamino)phenyl)-H-imidazo[1,2-a]pyridine-6-carbonitrile]"
3,197 to 198,"CC(=O)N(C)c1ccc(-c2cc3ccc(Br)cn3c2)cc1C [Ligand L16, N-(4-(6-bromoindolizin-2-yl)-2-methylphenyl)-N-methylacetamide]"
4,168 to 171,"CCSc1ccc2nc(-c3ccc(N(C)C)cc3)cn2c1 [Ligand T7, 4-(6-(ethylthio)-H-imidazo[1,2-a]pyridin-2-yl)-N,N-dimethylbenzenamine]"
